Source: patent US11701409B2, “Dosing and use of long-acting CLR/ramp agonists” (Adepthera LLC, priority 2016, dated 2023)
Read-outs that look alike come from different tables or passages of the source. No end group written: not given here.

Key:
[1] = test system: C57/B6 mice; test: Doxorubicin-induced cardiomyopathy in adult mice, heart weight; type: in vivo; conditions: for average heart weight: sixth day
Procedure: (§1) To evaluate the effects of the long-acting stable analog on heart failure, we treated 8-week-old C57/B6 mice with doxorubicin (10 mg/kg body weight) to induce cardiomyopathy. After the injection of doxorubicin, the animals were injected with wild-type ADM or the long-acting stable analog twice daily. After five days of treatment, the animals were sacrificed, and hearts were collected for weight determination individually. In addition, we collected blood samples for the determination of aspartate aminotransferase activity. Sham adult mice at the same ages were used as normal controls.

[2] = test system: C57/B6 mice; type: in vivo
Procedure: as §1
In a separate series of study, we evaluated the effects of stable analog on blood aspartate aminotransferase levels (FIG. 4b).

[3] = test system: normal pregnant Sprague Dawley rats; test: Blood pressure after bolus IP injection in instrumented normal pregnant Sprague Dawley rats; type: in vivo, rat; conditions: for duration of sustained reduction of blood pressure (hypotensive effect): bolus IP injection, 100 nmoles/kg, normal pregnant Sprague Dawley rats
Description: (§2) Bolus IP injection of the long-acting stable analog (100 nmoles/kg) led to a sustained reduction of blood pressure for 4 hr in normal pregnant Sprague Dawley rats, whereas the hypotensive effects of wild-type ADM disappeared within 2 hr (FIG. 1a). In addition, we compared the blood pressure-lowering effect of the long-acting stable analog in pregnant Sprague Dawley rats and pregnant spontaneous hypertensive rats (SHR). […] This characteristic not only allows less frequent dosing in clinical condition but also increases the therapeutic index of long-acting CLR/RAMP receptor agonists.

[4] = test system: pregnant SHR rats; test: Blood pressure after injection in pregnant spontaneous hypertensive rats (SHR); type: in vivo, rat; conditions: low dose 30 nmoles/kg
Description: as §2

[5] = test system: RUPP pregnant rats; test: Reduced uterine perfusion pressure (RUPP) preeclampsia rat model, osmotic mini-pump infusion for 4 days; type: in vivo
Procedure: To evaluate the effects of the long-acting stable analog for the treatment of preeclampsia, resistant hypertension, hypertensive crisis, vascular ischemic injury, and pregnancy hypertension, we tested the analog in a reduced uterine perfusion pressure (RUPP) preeclampsia rat model. The model was first described by Dr. Joey P. Granger et al. (2000, Hypertension 37:1191-1195). Briefly, pregnant rats weighing 200-250 g at 14 days of gestation were anesthetized with pentobarbital (40 mg/kg, i.p.). The lower abdomen area was shaved and the skin was swabbed with surgical scrub (iodine and alcohol). A 3-cm skin incision was made at the midline. After a midline incision, the lower abdominal aorta was isolated and a silver clip (0.203 mm) was placed around the aorta above the iliac bifurcation. Because compensatory blood flow to the placenta occurs via an adaptive increase in […] blood flow during pregnancy, both right and left […] arcades were clipped (silver clip, 0.100 mm). RUPP rats were divided into two groups, and an osmotic mini-pump (ALZET) loaded with saline or the long-acting analog was implanted in the upper abdomen. The mini-pumps delivered the solution at a rate of 1 ul/hr. Sham pregnant rats were used as normal controls.
The incision was closed with absorbable braided surgical suture. After awake, animals were given buprenorphine 0.1 mg/kg s.c. once a day for three days. These procedures reduced uterine blood flow in the gravid rat by >40%, and cause hypertension and intrauterine growth restriction in the fetus.
After 4 days of the treatments, all rats were anesthetized and catheterized for measurement of blood pressure and heart rate. Animals were anesthetized with pentobarbital, and a Mikro-tip catheter (1.0 F pressure catheter, Miller, Tex.) was placed into the right carotid artery. After insertion, the catheter was advanced into the aorta, and stopped at the appearance of arterial pressure curve. The Mikro-tip catheter was connected to a Powerlab system, and blood pressure and heart rate was recorded and saved in a computer. In addition, the blood flow velocity above and below the artery constriction site was determined by a Doppler method.
After the hemodynamic measurement was completed (taking about 0.5-1 hr), rats were euthanized. The fetuses, placenta tissues, and hearts were harvested and weighed individually.

[6] = high dosage 10 μg/kg/hr for four days
[7] = low dose 3.3 μg/kg/hr for four days

Question: `COc1cccc2c1C(=O)c1c(O)c3c(c(O)c1C2=O)C[C@@](O)(C(=O)CO)C[C@@H]3O[C@H]1C[C@H](N)[C@H](O)[C@H](C)O1` [doxorubicin, reference compound] was tested. Which average heart weight ([1]; doxorubicin 10 mg/kg body weight alone (Dox group)) did it give?
Answer: The average heart weight was 9.3 ± 0.4 mg.

Question: What about the “blood aspartate aminotransferase level” value ([2]; mouse, in vivo) of the same compound?
Answer: The value was 300.7±33.6 U/liter.

Question: Which “duration of sustained reduction of blood pressure (hypotensive effect)” value [3] does the source give for “Ace-K(Pal)GCRFGTCTVQKLAHQIYQFTDKDKDNVAPRSKISPQGY-NH2 (KGCRFGTCTVQKLAHQIYQFTDKDKDNVAPRSKISPQGY; N-acetyl, palmitoyl-Lys, C-terminal amide; MOD_RES (1)..(1) …ON; LIPID (1)..(1) …; MOD_RES (39)..(39) AMIDATION) [long-acting stable analog]” here?
Answer: Its value is 4 h.

Question: What about the “duration of blood pressure reduction” value ([3]; low dose 30 nmoles/kg, pregnant Sprague Dawley rats) of the same compound?
Answer: The value was 2 h.

Question: And the “duration of hypotensive effects” value [4]?
Answer: Its value is “over 8 hr”.

Question: And the average fetus weight [5, 6]?
Answer: The average fetus weight was 483 ± 92 mg.

Question: And the average heart weight [5, 6]?
Answer: Its average heart weight is 3.16±0.06 mg per gram body weight.

Question: What about the average placenta weight [5, 6] of the same compound?
Answer: Its average placenta weight is 253 ± 36 mg.

Question: And the “body weight lost during the four-day experimental period” value [5, 6]?
Answer: The value was 3±3 grams.

Question: What about the heart rate [5, 6] of the same compound?
Answer: The heart rate was 379±8 beats/min.

Question: What about the mean arterial pressure [5, 6] of the same compound?
Answer: The mean arterial pressure was 93±5 mmHg.

Question: And the average fetus weight [5, 7]?
Answer: The average fetus weight was 577 ± 166 mg.

Question: What about the average placenta weight [5, 7] of the same compound?
Answer: Its average placenta weight is 301 ± 46 mg.

Question: And the mean arterial pressure [5, 7]?
Answer: Its mean arterial pressure is 107±4 mmHg.

Question: And the average heart weight ([1]; co-treatment with doxorubicin 10 mg/kg, peptide injected twice daily, five days)?
Answer: The average heart weight was 11.0 ± 0.6 mg.

Question: What about the “blood aspartate aminotransferase level” value ([2]; Dox + stable analog, high dose 50 nM/Kg body weight) of the same compound?
Answer: The value was 200.1±10.0 U/liter.

Question: And the “effect on doxorubicin-elevated aspartate aminotransferase level” value ([2]; Dox + stable analog, low dose 25 nM/Kg BW)?
Answer: Its value is “no statistically significant effect”.

Question: What does the source list for “adrenomedullin (YRQSMNNFQGLRSFGCRFGTCTVQKLAHQIYQFTDKDKDNVAPRSKISPQGY; ends and bridges not checked; cysteine pairing not given here; UniProt P35318 95-146, looked up) [wild-type ADM, wild-type adrenomedullin, 52 amino acids, 1 intramolecular disulfide bond, ligand of CLR/RAMP receptors, reference compound]”?
Answer: duration of sustained reduction of blood pressure (hypotensive effect) [3]: ≤ 2 h; reduction of doxorubicin-induced loss of heart weight ([1]; co-treatment with doxorubicin 10 mg/kg, peptide injected twice daily, five days, Dox group vs. Dox+ADM group): not statistically significant
